Test results reported in patent US10426773B2, “Systems pharmacology for treating ocular disorders” (Case Western Reserve Univeristy, priority 2011, dated 2019).
Where two headings read alike, the source gives them in different places.

What was measured:
[1] = test system: ARPE19 cells; assay: In vitro detection and quantification of intracellular ROS in ARPE19 cells (DCF-DA / DHE probes); type: cell-based, human; settings: for intracellular ROS production: retinoid applied to cultured ARPE19 cells, ROS probe DCF-DA or DHE
Method: ARPE19 cells were cultured in Dulbecco's Modified Eagle's Medium (DMEM) (low glucose) supplemented with 10% fetal bovine serum. The ROS probes, 2′,7′-dichlorofluorescein diacetate (DCF-DA, Sigma, St. Louis, Mo.) or dihydroethidium (DHE, Invitrogen Corporation, Carlsbad, Calif.) were added after indicated pretreatments and incubated at 37° C. for 10-min before thorough washing in PBS and the ROS signals were subsequently observed at the same exposure setting under an inverted fluorescence microscope (Leica DMI 6000 B). Fluorescence quantification was performed with Metamorph imaging software (Molecular Devices, Downington, Pa.). Thresholds corresponding to fluorescent signals were set from the images and average fluorescence intensities were recorded for statistical analysis.

[2] = test system: ARPE19 cells
[3] = test system: ROS generation in photoreceptors of Abca4−/−Rdh8−/− mice; assay: In vivo detection of ROS (DHE probe) in retinas of light-exposed Abca4−/−Rdh8−/− mice; design: species or system mouse; settings: Example 1; pretreatment before light 10,000 lux 30 min; retinas 3 h after illumination
Method: The ROS probe, DHE, at a dose of 20 mg/kg body weight was administered to Abca4^−/−Rdh8^−/− mice via intraperitoneal injection 30 min prior to light exposure. Eye cups obtained after removing the cornea, lens and vitreous body from enucleated eye globes 3 h post light illumination were fixed in 4% paraformaldehyde. Cryosections were prepared from fixed eye cups and cut at 12 am thickness for microscopic assessment of ROS signal fluorescence in the retina.
The ROS probe, DHE, at a dose of 20 mg/kg body weight in 25 μl of DMSO, was administered to Abca4^−/−Rdh8^−/− mice via intraperitoneal injection 1 h prior to light exposure. Eye cups obtained after removing the cornea, lens, and vitreous body from enucleated eye globes 3 h post light illumination were fixed in 4% paraformaldehyde. Cryosections were prepared from fixed eye cups and cut at 12-am thickness for microscopic assessment of ROS fluorescence in the retina with ImageJ software (National Institutes of Health).

[4] = test system: Abca4−/−Rdh8−/− mice; assay: Bright light-induced retinal degeneration in Abca4−/−Rdh8−/− mice, retinal histology and immunohistochemistry; type: in vivo, mouse; settings: pretreatment before light 10,000 lux 30 min; 7-10 days after light exposure
Method: Retinal histology and immunohistochemistry (IHC) was performed as previously described. Briefly, eye cups free of cornea, lens and vitreous body were fixed in 2% glutaraldehyde/4% paraformaldehyde and processed for Epon embedding. Sections 1 am thick were cut and stained with toluidine blue for histological examination under a light microscope. IHC analysis was performed on 12 am thick cryosections prepared from 4% paraformaldehyde-fixed eye cups. Collected cryosections were subjected to examination for rhodopsin, PNA and DAPI expression.
Retinal immunohistochemistry (IHC) was carried out as previously described. Briefly, eyes were enucleated and eye cups were made to eliminate cornea, lens and vitreous body and fixed in 4% paraformaldehyde and processed for cryosectioning. 12 am thick cryosections were collected cryosections and subjected to examination for rhodopsin, peanut agglutinin lectin (PNA) and DAPI expression.
Retinal immunohistochemistry (IHC) was performed as previously described. Briefly, eyes were enucleated and, after removal of the cornea, lens and vitreous body, eye cups were fixed in 4% paraformaldehyde and processed for cryosectioning. Twelve μm thick cryosections were cut, collected and examined for rhodopsin expression, peanut agglutinin lectin (PNA) for cone sheath and nuclear DAPI staining. […]

[5] = test system: Abca4−/−Rdh8−/− mice; assay: Bright light-induced retinal degeneration in Abca4−/−Rdh8−/− mice, OCT imaging of retinal structure; type: in vivo, mouse; settings: pretreatment before light 10,000 lux 30 min; OCT 7 days after light exposure
[6] = test system: Abca4−/−Rdh8−/− mice; assay: Bright light-induced retinal degeneration in Abca4−/−Rdh8−/− mice, ERG retinal function; settings: pretreatment before light 10,000 lux 30 min; ERG 7 days to 2 weeks after
[7] = retinoid alone, at the doses examined

CC1=C(/C=C/C(C)=C/C=C/C(C)=C/c2cc(/C=C/C=C(C)/C=C/C3=C(C)CCCC3(C)C)cc[n+]2CCO)C(C)(C)CCC1 [A2E, di-retinoid-pyridinium-ethanolamine]
intracellular ROS production [1]: did not induce overproduction of intracellular ROS | cell death [2, 7]: neither atROL, atRA nor A2E induced cell death

COc1cc(C(C)=O)ccc1O [APO, Apocynin]
ROS production in the ONL / photoreceptors (DHE signal) [3]: substantially decreased ROS production | retinal histology / immunohistochemistry (rhodopsin, PNA, DAPI; ONL) [4]: nearly intact retinal morphology | atRAL-induced intracellular ROS generation ([1]; APO applied to ARPE19 cells together with atRAL): inhibited atRAL-induced intracellular ROS generation | retinal / photoreceptor morphology by OCT imaging [5]: well-preserved retinal morphology | ARPE19 cell survival ([2]; APO together with atRAL): improved ARPE19 cell survival | retinal function by ERG (a-wave and b-wave amplitudes) [6]: protective effect

CC1=C(/C=C/C(C)=C/C=C/C(C)=C/C(=O)O)C(C)(C)CCC1 [atRA, all-trans-retinoic acid]
intracellular ROS production [1]: did not induce overproduction of intracellular ROS | cell death ([2]; human, 24 h): neither atROL, atRA nor A2E induced cell death

CC1=C(/C=C/C(C)=C/C=C/C(C)=C/CO)C(C)(C)CCC1 [atROL, all-trans-retinol]
intracellular ROS production [1]: did not induce overproduction of intracellular ROS | cell death [2, 7]: neither atROL, atRA nor A2E induced cell death
